Results published in the NIST ThermoML archive (doi:10.1021/acs.jced.7b00119).
Values joined by “and” are separate entries in the source; they are usually repeats but may differ in a detail not shown here. Identical values can stand only once. Numbers after ± are expanded uncertainties.

What was measured:
[1] = Liquid, Closed cell (Static) method
[2] = excess molar enthalpy (molar enthalpy of mixing); xn = mol fraction of the nth substance listed; conditions: Liquid, Flow calorimetry

CC(=O)N(C)C [N,N-dimethylethanamide]
[1]
Conditions	vapor or sublimation pressure
328.15 K	1.61 ± 0.16 kPa and 1.64 ± 0.16 kPa
333.15 K	2.23 ± 0.16 kPa
343.15 K	3.39 ± 0.16 kPa
353.15 K	5.32 ± 0.16 kPa [middle of 5 runs]
363.15 K	8.46 ± 0.16 kPa

CC(=O)N(C)C [N,N-dimethylethanamide] + CCCCCC
[2]
Conditions	excess molar enthalpy [kcal/mol]
363.15 K, 1982 kPa, x2 = 0.0358	0.0559 ± 0.00215
363.15 K, 1982 kPa, x2 = 0.0726	0.114 ± 0.00335
363.15 K, 1982 kPa, x2 = 0.1106	0.168 ± 0.00454
363.15 K, 1982 kPa, x2 = 0.1498	0.218 ± 0.0055
363.15 K, 1982 kPa, x2 = 0.1902	0.262 ± 0.00645
363.15 K, 1982 kPa, x2 = 0.2319	0.302 ± 0.00741
363.15 K, 1982 kPa, x2 = 0.275	0.337 ± 0.00813
363.15 K, 1982 kPa, x2 = 0.3196	0.366 ± 0.00884
363.15 K, 1982 kPa, x2 = 0.3657	0.391 ± 0.00932
363.15 K, 1982 kPa, x2 = 0.4134	0.41 ± 0.00956
363.15 K, 1982 kPa, x2 = 0.4627	0.419 ± 0.0098
363.15 K, 1982 kPa, x2 = 0.5138	0.426 ± 0.01
363.15 K, 1982 kPa, x2 = 0.5668	0.426 ± 0.01
363.15 K, 1982 kPa, x2 = 0.6218	0.418 ± 0.0098
363.15 K, 1982 kPa, x2 = 0.6788	0.4 ± 0.00956
363.15 K, 1982 kPa, x2 = 0.7381	0.37 ± 0.00884
363.15 K, 1982 kPa, x2 = 0.7997	0.324 ± 0.00789
363.15 K, 1982 kPa, x2 = 0.8638	0.258 ± 0.00645
363.15 K, 1982 kPa, x2 = 0.9305	0.157 ± 0.0043
413.15 K, 1824 kPa, x2 = 0.0179	0.0289 ± 0.00167
413.15 K, 1824 kPa, x2 = 0.0361	0.059 ± 0.00215
413.15 K, 1824 kPa, x2 = 0.0733	0.117 ± 0.00335
413.15 K, 1824 kPa, x2 = 0.1116	0.17 ± 0.00454
413.15 K, 1824 kPa, x2 = 0.151	0.218 ± 0.0055
413.15 K, 1824 kPa, x2 = 0.1917	0.262 ± 0.00645
413.15 K, 1824 kPa, x2 = 0.2337	0.304 ± 0.00741
413.15 K, 1824 kPa, x2 = 0.277	0.338 ± 0.00813
413.15 K, 1824 kPa, x2 = 0.3217	0.369 ± 0.00884
413.15 K, 1824 kPa, x2 = 0.3679	0.396 ± 0.00932
413.15 K, 1824 kPa, x2 = 0.4157	0.421 ± 0.0098
413.15 K, 1824 kPa, x2 = 0.4651	0.433 ± 0.01
413.15 K, 1824 kPa, x2 = 0.5163	0.441 ± 0.0103
413.15 K, 1824 kPa, x2 = 0.5692	0.442 ± 0.0103
413.15 K, 1824 kPa, x2 = 0.6241	0.434 ± 0.01
413.15 K, 1824 kPa, x2 = 0.681	0.415 ± 0.0098
413.15 K, 1824 kPa, x2 = 0.74	0.386 ± 0.00908
413.15 K, 1824 kPa, x2 = 0.8013	0.337 ± 0.00813
413.15 K, 1824 kPa, x2 = 0.8649	0.264 ± 0.00645
413.15 K, 1824 kPa, x2 = 0.9311	0.158 ± 0.0043
413.15 K, 1824 kPa, x2 = 0.9652	0.086 ± 0.00287

CC(=O)N(C)C [N,N-dimethylethanamide] + CCCCCCC
[2], 413.15 K, 1824 kPa
Conditions	excess molar enthalpy [kcal/mol]
x2 = 0.016	0.0308 ± 0.00167
x2 = 0.0323	0.0619 ± 0.00239
x2 = 0.0659	0.122 ± 0.00359
x2 = 0.1007	0.177 ± 0.00478
x2 = 0.137	0.228 ± 0.00574
x2 = 0.1747	0.276 ± 0.00669
x2 = 0.2139	0.319 ± 0.00765
x2 = 0.2548	0.358 ± 0.0086
x2 = 0.2974	0.393 ± 0.00932
x2 = 0.3419	0.423 ± 0.01
x2 = 0.3883	0.449 ± 0.0105
x2 = 0.4369	0.466 ± 0.0108
x2 = 0.4878	0.476 ± 0.011
x2 = 0.5411	0.48 ± 0.0112
x2 = 0.597	0.474 ± 0.011
x2 = 0.6557	0.456 ± 0.0108
x2 = 0.7175	0.427 ± 0.01
x2 = 0.7825	0.376 ± 0.00884
x2 = 0.8511	0.299 ± 0.00741
x2 = 0.9234	0.181 ± 0.00478
x2 = 0.9612	0.0999 ± 0.00311

CC(=O)N(C)C [N,N-dimethylethanamide] + CCO
[2], 413.15 K, 1824 kPa
Conditions	excess molar enthalpy [kcal/mol]
x2 = 0.0774	-0.0421 ± 0.00191
x2 = 0.1505	-0.077 ± 0.00263
x2 = 0.2528	-0.116 ± 0.00335
x2 = 0.3471	-0.143 ± 0.00406
x2 = 0.462	-0.163 ± 0.00454
x2 = 0.541	-0.168 ± 0.00454
x2 = 0.6146	-0.166 ± 0.00454
x2 = 0.6833	-0.154 ± 0.0043
x2 = 0.7476	-0.138 ± 0.00382
x2 = 0.8271	-0.109 ± 0.00335
x2 = 0.8826	-0.0805 ± 0.00263
x2 = 0.9349	-0.049 ± 0.00191
x2 = 0.9681	-0.0258 ± 0.00143

CC(=O)N(C)C [N,N-dimethylethanamide] + CCOC(C)=O
[2], 323.15 K, 1307 kPa
Conditions	excess molar enthalpy [kcal/mol]
x2 = 0.0476	0.00669 ± 0.0011
x2 = 0.0954	0.0126 ± 0.00124
x2 = 0.1435	0.0188 ± 0.00136
x2 = 0.1918	0.0239 ± 0.00143
x2 = 0.2404	0.0284 ± 0.00167
x2 = 0.2892	0.0327 ± 0.00167
x2 = 0.3383	0.0361 ± 0.00167
x2 = 0.3876	0.0392 ± 0.00191
x2 = 0.4372	0.0413 ± 0.00191
x2 = 0.487	0.043 ± 0.00191
x2 = 0.5371	0.044 ± 0.00191
x2 = 0.5875	0.0437 ± 0.00191
x2 = 0.6381	0.043 ± 0.00191
x2 = 0.689	0.0409 ± 0.00191
x2 = 0.7401	0.0382 ± 0.00167
x2 = 0.7916	0.0344 ± 0.00167
x2 = 0.8433	0.0287 ± 0.00167
x2 = 0.8952	0.0212 ± 0.00141
x2 = 0.9475	0.0119 ± 0.00122

CC(=O)N(C)C [N,N-dimethylethanamide] + CO
[2], 413.15 K, 1824 kPa
Conditions	excess molar enthalpy [kcal/mol]
x2 = 0.1079	-0.0748 ± 0.00263
x2 = 0.2034	-0.13 ± 0.00382
x2 = 0.2885	-0.17 ± 0.00454
x2 = 0.3648	-0.196 ± 0.00502
x2 = 0.4337	-0.212 ± 0.0055
x2 = 0.4961	-0.22 ± 0.00574
x2 = 0.553	-0.221 ± 0.00574
x2 = 0.605	-0.217 ± 0.0055
x2 = 0.6527	-0.207 ± 0.00526
x2 = 0.6967	-0.197 ± 0.00502
x2 = 0.7374	-0.181 ± 0.00478
x2 = 0.7751	-0.163 ± 0.00454
x2 = 0.8101	-0.145 ± 0.00406
x2 = 0.8428	-0.125 ± 0.00359
x2 = 0.8733	-0.105 ± 0.00311
x2 = 0.9019	-0.0848 ± 0.00287
x2 = 0.9287	-0.0633 ± 0.00239
x2 = 0.9539	-0.0423 ± 0.00191
x2 = 0.9776	-0.0213 ± 0.00141
